From paper PMC8129716 (CPT: Pharmacometrics & Systems Pharmacology, 2021)

Tests used:
P‐gp = P‐gp (Homo sapiens, UniProt P08183); assay: transporter substrate assessment; assay type: in vitro ADME
[1] = population PK analysis; cited from earlier work
[2] = zanubrutinib PBPK model parameters; set-up: species or system human
OATP1B3 = biological target: T1, OATP1B3 (Homo sapiens, UniProt Q9NPD5); assay: transporter substrate/inhibitor assessment; assay type: in vitro ADME
T1 sequence (Q9NPD5 1-702): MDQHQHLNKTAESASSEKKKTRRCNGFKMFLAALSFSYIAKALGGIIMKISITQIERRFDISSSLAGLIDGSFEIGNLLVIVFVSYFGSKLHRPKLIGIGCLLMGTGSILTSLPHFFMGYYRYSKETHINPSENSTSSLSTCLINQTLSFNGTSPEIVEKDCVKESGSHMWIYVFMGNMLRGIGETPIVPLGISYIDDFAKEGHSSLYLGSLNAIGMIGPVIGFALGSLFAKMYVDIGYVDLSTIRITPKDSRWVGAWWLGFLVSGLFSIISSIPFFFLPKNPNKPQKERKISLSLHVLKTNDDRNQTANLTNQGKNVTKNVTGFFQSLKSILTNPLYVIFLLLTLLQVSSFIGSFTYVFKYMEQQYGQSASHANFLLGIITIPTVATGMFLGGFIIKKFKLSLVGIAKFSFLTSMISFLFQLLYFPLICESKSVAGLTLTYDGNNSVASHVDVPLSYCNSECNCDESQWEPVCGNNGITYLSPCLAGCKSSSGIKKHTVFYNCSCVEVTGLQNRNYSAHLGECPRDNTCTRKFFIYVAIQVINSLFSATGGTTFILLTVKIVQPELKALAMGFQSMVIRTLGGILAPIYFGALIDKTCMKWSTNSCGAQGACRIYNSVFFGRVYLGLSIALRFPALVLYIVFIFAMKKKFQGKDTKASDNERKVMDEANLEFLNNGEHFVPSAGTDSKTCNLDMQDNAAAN

[3] = human liver microsome intrinsic clearance; assay type: in vitro ADME; details: liver microsomes
CYP2D6 = CYP2D6 (Homo sapiens, UniProt P10635); assay: reversible competitive CYP inhibition; assay type: in vitro ADME; details: read-out: Ki CYP2D6; Ki=IC50/2
Chain of CYP2D6 (P10635 whole entry): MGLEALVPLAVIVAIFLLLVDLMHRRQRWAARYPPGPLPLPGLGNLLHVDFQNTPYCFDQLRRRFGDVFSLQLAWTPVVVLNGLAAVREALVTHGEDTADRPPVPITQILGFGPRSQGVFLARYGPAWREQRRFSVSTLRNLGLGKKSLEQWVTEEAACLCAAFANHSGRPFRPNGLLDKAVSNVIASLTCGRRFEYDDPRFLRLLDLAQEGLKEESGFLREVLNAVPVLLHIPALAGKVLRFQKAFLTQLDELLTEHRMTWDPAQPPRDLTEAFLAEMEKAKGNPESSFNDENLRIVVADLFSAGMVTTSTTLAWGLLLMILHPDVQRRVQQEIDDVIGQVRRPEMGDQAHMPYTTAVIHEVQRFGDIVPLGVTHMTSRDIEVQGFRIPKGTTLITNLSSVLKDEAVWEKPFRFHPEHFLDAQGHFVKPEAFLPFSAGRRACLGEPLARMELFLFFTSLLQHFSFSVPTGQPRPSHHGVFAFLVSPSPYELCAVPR

[4] = human ADME study, single radiolabeled dose 320 mg; assay type: in vivo
logP = assay type: physicochemical; details: octanol/water
CYP2B6 = CYP2B6 induction in vitro; assay type: in vitro ADME, human
[5] = fraction of unbound drug in plasma; assay type: in vitro ADME
OCT2 = biological target: T2, OCT2 (Homo sapiens, UniProt O15244); assay: transporter substrate/inhibitor assessment; assay type: in vitro ADME
T2 sequence (O15244 1-555): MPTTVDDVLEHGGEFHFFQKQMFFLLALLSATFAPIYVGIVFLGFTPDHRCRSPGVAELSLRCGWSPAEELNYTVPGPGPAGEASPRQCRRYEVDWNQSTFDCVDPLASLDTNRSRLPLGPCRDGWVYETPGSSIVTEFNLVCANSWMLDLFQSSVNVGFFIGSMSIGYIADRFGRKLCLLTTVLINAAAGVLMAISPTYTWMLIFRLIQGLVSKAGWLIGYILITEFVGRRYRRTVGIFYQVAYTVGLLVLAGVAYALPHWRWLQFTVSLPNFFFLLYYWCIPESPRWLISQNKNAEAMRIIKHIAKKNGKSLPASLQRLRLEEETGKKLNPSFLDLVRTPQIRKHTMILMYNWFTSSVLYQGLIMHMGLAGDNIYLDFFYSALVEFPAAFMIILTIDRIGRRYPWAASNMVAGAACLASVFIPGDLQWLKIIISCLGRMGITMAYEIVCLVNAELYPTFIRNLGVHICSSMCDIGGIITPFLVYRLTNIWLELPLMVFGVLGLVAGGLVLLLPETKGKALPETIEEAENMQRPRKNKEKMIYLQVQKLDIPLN

[6] = single radiolabeled 320 mg, healthy subjects

Chain of P‐gp (P08183 whole entry): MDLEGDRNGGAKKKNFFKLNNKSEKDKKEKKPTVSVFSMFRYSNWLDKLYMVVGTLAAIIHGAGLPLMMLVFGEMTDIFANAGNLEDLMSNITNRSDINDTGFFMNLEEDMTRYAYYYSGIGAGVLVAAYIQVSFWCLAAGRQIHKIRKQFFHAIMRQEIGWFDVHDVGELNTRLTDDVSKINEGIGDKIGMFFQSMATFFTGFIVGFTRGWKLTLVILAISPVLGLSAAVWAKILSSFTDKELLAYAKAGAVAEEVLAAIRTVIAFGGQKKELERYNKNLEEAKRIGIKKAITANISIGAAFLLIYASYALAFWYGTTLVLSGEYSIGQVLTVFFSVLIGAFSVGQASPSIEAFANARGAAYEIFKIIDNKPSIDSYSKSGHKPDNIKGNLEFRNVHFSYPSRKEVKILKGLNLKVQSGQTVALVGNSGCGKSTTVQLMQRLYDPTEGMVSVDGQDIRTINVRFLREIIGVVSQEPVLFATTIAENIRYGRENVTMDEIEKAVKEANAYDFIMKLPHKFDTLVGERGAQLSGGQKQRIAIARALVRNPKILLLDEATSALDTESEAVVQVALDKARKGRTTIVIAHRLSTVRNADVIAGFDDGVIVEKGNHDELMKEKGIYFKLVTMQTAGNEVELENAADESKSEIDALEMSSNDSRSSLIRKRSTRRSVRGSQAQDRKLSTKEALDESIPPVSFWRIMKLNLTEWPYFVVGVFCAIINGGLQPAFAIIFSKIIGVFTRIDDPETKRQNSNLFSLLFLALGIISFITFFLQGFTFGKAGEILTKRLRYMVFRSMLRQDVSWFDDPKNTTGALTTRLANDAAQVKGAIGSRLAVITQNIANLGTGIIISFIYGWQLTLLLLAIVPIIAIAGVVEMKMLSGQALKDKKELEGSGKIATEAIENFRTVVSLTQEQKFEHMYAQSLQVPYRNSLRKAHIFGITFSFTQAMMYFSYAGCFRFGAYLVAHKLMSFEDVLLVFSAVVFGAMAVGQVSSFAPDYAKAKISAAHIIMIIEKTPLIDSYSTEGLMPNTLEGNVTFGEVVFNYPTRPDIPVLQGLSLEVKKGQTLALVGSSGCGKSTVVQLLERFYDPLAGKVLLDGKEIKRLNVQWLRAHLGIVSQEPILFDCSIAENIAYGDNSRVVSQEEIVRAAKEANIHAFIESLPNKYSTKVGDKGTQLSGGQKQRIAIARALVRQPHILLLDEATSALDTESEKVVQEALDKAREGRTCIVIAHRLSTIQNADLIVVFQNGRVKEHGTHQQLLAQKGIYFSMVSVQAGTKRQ

## C=CC(=O)N1CCC([C@@H]2CCNc3c(C(N)=O)c(-c4ccc(Oc5ccccc5)cc4)nn32)CC1 [zanubrutinib, Zanubrutinib]
P‐gp
  P-gp substrate: likely to be a substrate
[1]
  AUC lower in patients compared with healthy volunteers: 43.7%
  Cmax lower in patients compared with healthy volunteers: 26.8%
[2]
  Estimated renal contribution: Based on human absorption, metabolism, and excretion study (BGB−3111–105); Estimated renal contribution: 1.6% of total CL
[2]; human, urine, oral, 320 mg
  CL renal: 8.33 mL/min
OATP1B3
  substrate or inhibitor of OATP1B3: not a substrate or inhibitor
[3]
  microsomal CLint: 109 µL/min/mg
CYP2D6
  Ki: 36.5 µM
[4]; inferred from unchanged drug in feces
  zanubrutinib absorbed: 60–70%
[4]; single radiolabeled 320 mg
  dose excreted renally as parent drug: 0.4 % of the dose
  unchanged zanubrutinib in feces: 38 % of the dose
[4]; [6]
  dose recovered in feces: approximately 87%
  dose recovered in urine: ~8%
logP
  logP: 4.2
CYP2B6; 0.3 μM
  increase of CYP2B6 mRNA levels: 1.6 fold
CYP2B6; 3 μM
  increase of CYP2B6 mRNA levels: 3.6 fold
CYP2B6; 30 μM
  increase of CYP2B6 mRNA levels: 2.6 fold
CYP2B6; Emax model
  Indmax CYP2B6: 2.21 fold
CYP2B6; human, hepatocytes
  EC50: 0.73 µM
CYP2B6; per FDA DDI guidance, from in vitro data
  R3 (CYP2B6 induction potential): 0.55
[5]
  fraction unbound: 0.0582
OCT2
  substrate or inhibitor of OCT2: not a substrate or inhibitor
